Patent US5034391A, “Piperazinylalkyl-3(2H)-pyridazinones and the use thereof as agents lowering blood pressure” (CL Pharma Aktiengesellschaft, priority 1988, dated 1991)
Where “and” joins values, the source holds several entries; their conditions need not be identical. Equal entries are not always repeated.

How the values were obtained:
[1] = target: T1, 5-HT-1A receptors (Rattus norvegicus, UniProt P19327); test: Affinity for 5-HT-1A receptors: displacement of tritiated 8-OH-DPAT on rat brain membranes; type: binding; conditions: Ki from IC50 by Cheng and Prusoff, read-out: Inhibition constants at 5-HT1A-receptor (Ki)
T1 construct: 5-HT-1A receptors in rat brain membranes; from tissue; host or cells: rat brain membranes
T1 sequence (P19327 1-422): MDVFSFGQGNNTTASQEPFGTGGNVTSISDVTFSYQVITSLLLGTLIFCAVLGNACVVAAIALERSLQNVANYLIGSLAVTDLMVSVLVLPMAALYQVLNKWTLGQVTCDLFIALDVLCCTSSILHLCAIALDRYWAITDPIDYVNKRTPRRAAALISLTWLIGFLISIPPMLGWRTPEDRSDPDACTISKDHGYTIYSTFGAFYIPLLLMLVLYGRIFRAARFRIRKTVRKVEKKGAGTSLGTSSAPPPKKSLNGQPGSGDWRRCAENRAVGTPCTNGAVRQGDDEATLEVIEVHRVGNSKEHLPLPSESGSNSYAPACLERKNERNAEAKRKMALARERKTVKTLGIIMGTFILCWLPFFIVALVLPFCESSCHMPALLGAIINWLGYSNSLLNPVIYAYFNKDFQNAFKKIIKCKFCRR
Description: The affinity of compounds of the general formula I for 5-HT-1A receptors was determined by the method described by H. Gozlan, S. Elmestikawy, L. Pichat, J. Glowinski and M. Hamon in Nature 305, 140-142 (1983). In this method the competitive displacement of tritiated 8-OH-DPAT (8-hydroxy-(di-n-propylamino)tetralin) on rat brain membranes by the test substances is measured, and the IC50 (50% inhibition concentration) is determined as that concentration which brings about a 50% inhibition of the specific binding of tritiated 8-OH-DPAT to 5-HT-1A receptors in rat brain membranes.
The concentration-independent inhibitor constants K1 -alpha1 and K1 -5HT-1A were determined from the IC50 values as stated by Y. Cheng and H. W. Prusoff in Biochem. Pharmacol. 22, 3099-3108 (1973).

[2] = target: T2, alpha1 adrenoceptors (Rattus norvegicus, UniProt P15823); test: Affinity for alpha1 adrenoceptors: displacement of tritiated prazosin on rat cardiac membranes; type: binding; conditions: Ki from IC50 by Cheng and Prusoff, read-out: Inhibition constants at alpha-1-adrenoceptor (Ki)
T2 construct: from tissue; host or cells: rat cardiac membranes
T2 sequence (P15823 1-515): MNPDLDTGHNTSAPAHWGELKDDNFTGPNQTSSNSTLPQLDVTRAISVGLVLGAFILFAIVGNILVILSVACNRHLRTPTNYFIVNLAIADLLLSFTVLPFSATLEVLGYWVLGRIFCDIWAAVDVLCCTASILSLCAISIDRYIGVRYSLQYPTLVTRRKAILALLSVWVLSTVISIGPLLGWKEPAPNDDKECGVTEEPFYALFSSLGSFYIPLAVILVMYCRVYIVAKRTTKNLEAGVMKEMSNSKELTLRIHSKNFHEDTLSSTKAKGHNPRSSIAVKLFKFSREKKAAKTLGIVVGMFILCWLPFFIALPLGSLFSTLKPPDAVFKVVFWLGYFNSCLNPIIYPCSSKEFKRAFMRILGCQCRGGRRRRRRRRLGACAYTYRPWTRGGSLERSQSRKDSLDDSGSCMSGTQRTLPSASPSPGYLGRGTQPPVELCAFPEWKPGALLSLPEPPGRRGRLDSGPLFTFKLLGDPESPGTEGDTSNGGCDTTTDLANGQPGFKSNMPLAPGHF
Description: The affinity of compounds of the general formula I for alpha1 adrenoceptors was established using the method described by R. S. Williams, D. F. Dukes and […] in J. Cardiovasc. Pharmacol. 3, 522-531 (1981). In this method the competitive displacement of tritiated prazosin (2-(4-(2-furoyl)-1-piperazinyl)-4-amino-6,7-dimethoxy-quinazoline) on rat-cardiac membranes by the test substances is measured, and the IC50 (50% inhibition concentration) is determined as that concentration which brings about a 50% inhibition of the specific binding of tritiated prazosin to the alpha1 adrenoceptors in rat cardiac membranes.
The concentration-independent inhibitor constants K1 -alpha1 were determined from the IC50 values as stated by Y. Cheng and H. W.Prusoff in Biochem. Pharmacol. 22, 3099-3108 (1973).

Row | SMILES | Ki [1] [µM] | Ki [2]
1 | COc1ccccc1N1CCN(CCNc2ccnn(CCO)c2=O)CC1 [2-Hydroxyethyl-4-((2-(4-(2-methoxyphenyl)piperazinyl-1)ethyl)amino)-3(2H)-pyridazinone] | 0.0182 | 0.0177 µM
2 | COc1ccccc1N1CCN(CCCNc2cc(Cl)nn(C)c2=O)CC1 [2-Methyl-6-chloro-4-((3-(4-(2-methoxyphenyl)-1-piperazinyl)propyl)amino)-3(2H)-pyridazinone] | 0.0466 | 0.011 µM
3 | COc1ccccc1N1CCN(CCNc2cnn(-c3ccccc3)c(=O)c2Cl)CC1 [2-Phenyl-4-chloro-5-((2-(4-(2-methoxyphenyl)piperazinyl-1)ethyl)amino)-3(2H)-pyridazinone] | 0.0758 | 0.00448 µM
4 | COc1cc(C)ccc1N1CCN(CCNc2c(Cl)cnn(C)c2=O)CC1 [2-Methyl-5-chloro-4-((2-(4-(2-methoxy-4-methylphenyl)piperazinyl-1)ethyl)amino)-3(2H)-pyridazinone] | 0.126 | 0.0224 µM
5 | Cn1nccc(NCCN2CCN(c3cccc(C(F)(F)F)c3)CC2)c1=O [2-Methyl-4-((2-(4-(3-trifluoromethylphenyl)piperazinyl-1)ethyl)amino-3(2H)-pyridazinone] | 0.00456 | 0.175 µM
6 | COc1ccccc1N1CCN(CCCNc2cnn(C)c(=O)c2Cl)CC1 [2-Methyl-4-chloro-5-((3-(4-(2-methoxyphenyl)-1-piperazinyl)propyl)amino)-3(2H)-pyridazinone] | 0.0507 | 0.0322 µM
7 | CCN(CCN1CCN(c2ccccc2OC)CC1)c1cnn(C)c(=O)c1 [2-Methyl-5-(ethyl-(2-(4-(2-methoxyphenyl)piperazinyl-1)ethyl)amino)-3(2H)-pyridazinone] | 0.0242 | 0.0206 µM
8 | COc1cc(C)ccc1N1CCN(CCNc2ccnn(C)c2=O)CC1 [2-Methyl-4-((2-(4-(2-methoxy-4-methylphenyl)piperazinyl-1)ethyl)amino)-3(2H)-pyridazinone] | 0.272 | 0.171 µM
9 | COc1cc(C)ccc1N1CCN(CCNc2cnn(C)c(=O)c2)CC1 [2-Methyl-5-((2-(4-(2-methoxy-4-methylphenyl)piperazinyl-1)ethyl)amino)-3(2H)-pyridazinone] | 0.814 | 0.207 µM
10 | COc1ccccc1N1CCN(CCNc2c(Cl)cnn(C)c2=O)CC1 [2-Methyl-5-chloro-4-((2-(4-(2-methoxyphenyl)-1-piperazinyl)ethyl)amino)-3(2H)-pyridazinone] | 0.0166 | 0.0015 µM
11 | COc1ccc(C)cc1N1CCN(CCNc2ccnn(C)c2=O)CC1 [2-Methyl-4-((2-(4-(2-methoxy-5-methylphenyl)piperazinyl-1)ethyl)amino)-3(2H)-pyridazinone] | 0.186 | 0.0736 µM
12 | COc1ccccc1N1CCN(CCCNc2c(Cl)cnn(C)c2=O)CC1 [2-methyl-5-chloro-4-((3-(4-(2-methoxyphenyl)-1-piperazinyl)propyl)amino)-3(2H)-pyridazinone] | 0.0014 | 0.00348 µM
13 | COc1ccccc1N1CCN(CCNc2cnn(CCN(C)C)c(=O)c2Cl)CC1 [2-(Dimethylaminoethyl)-4-chloro-5-((2-(4-(2-methoxyphenyl)piperazinyl-1)ethyl)amino)-3(2H)-pyridazinone] | 0.118 | 0.0173 µM
14 | Cn1ncc(NCCN2CCN(c3ccccc3)CC2)c(Cl)c1=O [2-Methyl-4-chloro-5-((2-(4-phenylpiperazinyl-1)ethyl)amino)-3(2H)-pyridazinone] | 0.106 | 0.00405 µM
15 | Cn1ncc(Cl)c(NCCN2CCN(c3ccccc3F)CC2)c1=O [2-Methyl-5-chloro-4-((2-(4-(2-fluorophenyl)piperazinyl-1)ethyl)amino-3(2H)-pyridazinone] | 0.0808 | 0.00251 µM
16 | COc1ccccc1N1CCN(CCNc2c(OC)cnn(C)c2=O)CC1 [5-Methoxy-2-methyl-4-((2-(4-(2-methoxyphenyl)-1-piperazinyl)ethyl)amino)-3(2H)-pyridazinone] | 0.0908 | 0.00783 µM

Row | SMILES | Ki [1] [µM] | Ki [2]
17 | CCN(CCN1CCN(c2ccccc2OC)CC1)c1ccnn(C)c1=O [2-Methyl-4-(ethyl-(2-(4-(2-methoxyphenyl)piperazinyl-1)ethyl)amino)-3(2H)-pyridazinone] | 0.0407 | 0.068 µM
18 | COc1ccc(C)cc1N1CCN(CCNc2c(Cl)cnn(C)c2=O)CC1 [2-Methyl-5-chloro-4-((2-(4-(2-methoxy-5-methylphenyl)piperazinyl-1)ethyl)amino)-3(2H)-pyridazinone] | 0.0851 | 0.00601 µM
19 | COc1ccc(C)cc1N1CCN(CCNc2cnn(C)c(=O)c2Cl)CC1 [2-Methyl-4-chloro-5-((2-(4-(2-methoxy-5-methylphenyl)piperazinyl-1)ethyl)amino)-3(2H)-pyridazinone] | 0.51 | 0.00698 µM
20 | COc1ccccc1N1CCN(CCNc2ccn[nH]c2=O)CC1 [4-((2-(4-(2-Methoxyphenyl)piperazinyl-1)ethyl)amino)-3(2H)-pyridazinone] |  | 0.0422 µM
21 | Cn1ncc(NCCN2CCN(c3ccccc3OCc3ccccc3)CC2)c(Cl)c1=O [2-Methyl-4-chloro-5-((2-(4-(2-benzyloxyphenyl)piperazinyl-1)ethyl)amino)-3(2H)-pyridazinone] |  | 0.002 µM
22 | CCOc1ccccc1N1CCN(CCCNc2cc(Cl)nn(C)c2=O)CC1 [2-Methyl-6-chloro-(3-(4-(4-(2-ethoxyphenyl)piperazinyl-1)propyl)amino)-3(2H)-pyridazinone] |  | 0.0065 µM
23 | Cn1nccc(NCCCN2CCN(c3ccccc3F)CC2)c1=O [2-Methyl-4-((3-(4-(2-fluorophenyl)piperazinyl-1)propyl)amino)-3(2H)-pyridazinone] |  | 0.0302 µM
24 | CCN(CCN1CCN(c2ccccc2OC)CC1)c1cnn(C)c(=O)c1Cl [2-Methyl-4-chloro-5-(ethyl-(2-(4-(2-methoxyphenyl)piperazinyl-1)ethyl)amino)-3(2H)-pyridazinone] |  | 0.0371 µM
25 | COc1ccccc1N1CCN(CCCCNc2cnn(C)c(=O)c2)CC1 [2-Methyl-5-((4-(4-(2-methoxyphenyl)piperazinyl-1)butyl)amino)-3(2H)-pyridazinone] |  | 0.00538 µM
26 | COc1ccccc1N1CCN(CCNc2cnn(CCN(C)C)c(=O)c2)CC1 [2-(2-Dimethylaminoethyl)-5-((2-(4-(2-methoxyphenyl)piperazinyl-1)ethyl)amino)-3(2H)-pyridazinone] |  | 0.229 µM
27 | O=c1[nH]nccc1NCCN1CCN(c2ccccc2O)CC1 [4((2-(4-(2-Hydroxyphenyl)piperazinyl-1)ethyl)amino)-3(2H)-pyridazinone] |  | 0.084 µM
28 | COc1ccccc1N1CCN(CCCNc2ccnn(C)c2=O)CC1 [2-Methyl-4-((3-(4-(2-methoxyphenyl)piperazinyl-1)propyl)amino-3(2H)-pyridazinone] |  | 0.0247 µM and 0.0405 µM
29 | COc1ccccc1N1CCN(CCNc2ccnn(C)c2=O)CC1 [2-Methyl-4-((2-(4-(2-methoxyphenyl)piperazinyl-1)ethyl)amino)-3(2H)-pyridazinone] |  | 0.0157 µM
30 | COc1ccccc1N1CCN(CCCCNc2ccnn(C)c2=O)CC1 [2-Methyl-4-((4-(4-(2-methoxyphenyl)piperazinyl-1)butyl)amino)-3(2H)-pyridazinone] |  | 0.0118 µM
31 | CCOc1cc(C)ccc1N1CCN(CCCNc2c(Cl)cnn(C)c2=O)CC1 [2-Methyl-5-chloro-4-((3-(4-(2-ethoxy-4-methylphenyl)piperazinyl-1)propyl)amino)-3(2H)-pyridazinone] |  | 0.00499 µM
